Measured values taken from US20210052701A1, “Methods of Treating Vascular Leakage Using CXCL12 Peptides” (The Medical College of Wisconsin, Inc., priority 2018, published 2021).
“Also recorded” adds a separate entry of the source.

Assays:
hPPAEC [1] = assay: Effects of CXCR4 agonists / CXCL12 variants on thrombin-induced impairment of hPPAEC monolayer permeability; format: cell-based, human
Method in brief: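 Confluent hPPAEC monolayers on collagen-coated permeable membranes were exposed to 35 nM thrombin; 10 min later, agonists or CXCL12 variants (0.05–50 nM) were added, ± AMD3100 10 μM. FITC-dextran (20 μg/mL) crossing the monolayer was read by fluorescence over 255 min. % inhibition of hyperpermeability was taken at 255 min; N=3 in quadruplicate.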

CXCL12 = CXCL12 (Homo sapiens, UniProt P48061); conditions: read-out: dimerization Kd; cited from earlier work
CXCL12, sequence (P48061 22-89 limits assumed): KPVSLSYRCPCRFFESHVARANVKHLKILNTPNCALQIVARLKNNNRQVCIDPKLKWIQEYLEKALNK

hPPAEC [2] = assay: In vitro vascular permeability assay (FITC-dextran), hPPAEC monolayer, CXCR4/ACKR3 ligands without thrombin; format: cell-based, human; conditions: 50 nM ligand for 10 min, then FITC-dextran; no thrombin
Method: FIGS. 1A-1B show expression of CXCR4, ACKR3 and CXCR4:ACKR3 heteromers on hPPAEC and effects of CXCR4/ACKR3 ligands on hPPAEC monolayer permeability. (A) Detection of CXCR4, ACKR3 and CXCR4:ACKR3 heteromers on hPPAEC by PLA. Typical PLA images for the detection of individual receptors and CXCR4:ACKR3 heteromers. Images show merged PLA/40,6-diamidino-2-phenylindole dihydrochloride (DAPI) signals. Ctrl: Omission of one secondary antibody. (B) hPPAEC were grown to a confluent monolayer on collagen-coated permeable membranes. Cells were then exposed to vehicle or 50 nM of CXCR4/ACKR3 ligands for 10 minutes, as indicated, followed by the addition of FITC-dextran. Endothelial permeability was assessed by measuring the amount of FITC-dextran that permeated through the cell monolayer. N=3 in quadruplicate. No cells: 100% permeability, open squares. RFU: Relative fluorescence units. *: p<0.05 vs. vehicle (2-way ANOVA/Bonferroni's multiple comparison post hoc test).
Cells and cell lines—Human primary pulmonary artery endothelial cells (hPPAEC) (ATCC, PCS-100-022) and the human lung microvascular endothelial cell line HULEC-5a (ATCC, CRL-3244) were cultured in vascular cell basal medium (ATCC, PCS-100-030) with endothelial cell growth kit-VEGF (ATCC, PCS-100-041). The HTLA cell line, a HEK293 cell line stably expressing a tTA-dependent luciferase reporter and a β-arrestin2-TEV fusion gene, was generously provided by the laboratory of Dr. Bryan Roth and maintained in high glucose Dulbecco's Modified Eagle's Medium supplemented with 10% (vol/vol) FBS, 1× non-essential amino acids, 100 U/mL penicillin, 100 μg/mL streptomycin, 50 μg/mL hygromycin B, and 2 μg/mL puromycin. All cells were cultured at 37° C., 5% CO2 in a humidified atmosphere.
In vitro vascular permeability assays—Permeability assays were obtained from Millipore (ECM642) and performed as per manufacturer's instructions. In brief, 96-well collagen-coated permeability assay plates were pre-hydrated for 15 min, 5×10^5 cells were seeded on each well and grown to a confluent monolayer for 48 hours. Fluorescein isothiocyanate (FITC)-dextran (20 μg/mL) was then added on top of the monolayer and the amount of FITC-dextran that permeated through the monolayer was quantified by measuring fluorescence in a Synergy 2 Multi-mode Microplate Reader (BioTek, Winooski, Vt.) at various time points over a 255 min time period.

CXCL12: Wild-type CXCL12 (SEQ ID NO:1), cognate agonist of CXCR4 and ACKR3
effect of pre-treatment on thrombin-induced hyper-permeability of hPPAEC (hPPAEC [1]; 100 nM for 10 min, then thrombin (50 nM)): significantly attenuated thrombin-induced hyper-permeability of hPPAEC; also recorded: more efficacious than ubiquitin | effect on thrombin-induced permeability of hPPAEC when added after thrombin (hPPAEC [1]; thrombin 35 nM, after 10 min CXCL12 or ubiquitin 50 nM, AMD3100 10 μM): significantly attenuated thrombin-induced permeability of hPPAEC | Kd (CXCL12): 140 µM | effect on hPPAEC monolayer permeability (hPPAEC [2]): enhanced hPPAEC barrier function
